In assay [1] the target is Avi-humanTEAD4 217-434 / Cy5 labeled humanYAP 60-100 (Homo sapiens (Human), UniProt Q15561). Description: TR-FRET YAP-TEAD4 in-vitro biochemical assay. Type of assay: binding. The note with it: 1 nM Avi-humanTEAD4 217-434, 20 nM Cy5-humanYAP 60-100, 1 h room temperature. On the technique in general: In TR-FRET formats the signal depends on donor and acceptor labels being close together.

Assay [2] has as its system NCI-H2052 Tet-On shYAP_2371 pLenti6 MCAT_Luc cells (YAP-dependent transcription). Put plainly: YAP reporter gene activity assay (MCAT-luciferase), NCI-H2052. It is filed as cell-based. The note with it: 24 hours incubation, BrightGlo luminescence. Here is the method: (§1) This cell line was also transduced with a Tet-pLKO-puro-based construct mediating tetracycline-inducible expression of a short-hairpin directed against the 3′UTR of the YAP1 mRNA (5′-[…]-3′).
(§2) Stock solutions of compounds were prepared at a concentration of 10 mM in DMSO and stored at 4° C. Where necessary to afford a full dose-response curve, the stock solutions were pre-diluted in DMSO to 1'000-fold the desired reduced start concentration. On the day after cell seeding, eleven 2-fold serial dilutions of each compound were dispensed directly into the cell assay plates using a HP 300D non-contact Digital Dispenser (TECAN, Mannedorf, Switzerland). The final concentration of DMSO was normalized to 0.1% in all wells.
The ability of compounds to inhibit YAP-dependent transcription was assessed in NCI-H2052 Tet-On shYAP_2371 pLenti6 MCAT_Luc cells, while specificity (lack of unspecific inhibition of luciferase expression of activity) was assessed in MKN-45/Ubc-luc cells. […] Following incubation for 24 hours at 37° C., compound-mediated modulation of reporter-gene activity was quantified 5 min after addition of 20 μl BrightGlo (Promega, Cat #E2620), by measuring luminescence intensity on a multi-mode plate-reader (TECAN, Männedorf, Switzerland, Integration time 100 ms). For data analysis, the assay background value determined in wells containing medium, but no cells, was subtracted from all data points. Dose-dependent compound effects were expressed as % of vehicle-treated control (luminescence signal produced by cells receiving DMSO only) and IC50s calculated using a four-parametric fit model.
A general note: A reporter such as luciferase makes a cellular process visible.

Assay [3] relates to MKN-45/Ubc-luc cells. Description: Reporter gene specificity control (Ubc-luciferase), MKN-45.
Assay [4] deals with NCI-H2052 Tet-On shYAP_2371 pLenti6 MCAT_Luc cells. Put plainly: Proliferation assay (resazurin), NCI-H2052. Type of assay: cell-based. The note with it: 72 hours incubation. Here is the method: as §1, §2
(§3) The functional effect of compounds on cell proliferation was assessed using NCI-H2052 Tet-On shYAP_2371 pLenti6 MCAT_Luc and MKN-45/Ubc-luc cells by quantifying the reducing capacity of live cells using the redox indicator dye resazurin. […] For data analysis, the assay background value determined in wells containing medium, but no cells, was subtracted from all data points. […] The effect of a particular test compound concentration on cell proliferation/viability was expressed as percentage of day 0-corrected fluorescence reading obtained for cells treated with vehicle only (DMSO, final concentration 0.1%), which was set as 100%, whereas the fluorescence reading for wells containing medium only, but no cells, was set as −100%. Compound concentrations leading to half-maximal growth inhibition (GI50) were determined using standard four parameter curve fitting.
A general note: The colour change of resazurin is a common sign of viable cells or microbes.

For assay [5], the system named is MKN-45/Ubc-luc cells. Description: Proliferation assay (resazurin), MKN-45. It is filed as cell-based. The note with it: 72 hours incubation. Here is the method:
As a specificity control, MKN-45 cells were stably transduced with a Ubc-Luc reporter construct, in which constitutive expression of firefly luciferase is driven by the promoter of the ubiquitin C housekeeping gene.
as §2, §3

[6] abbreviates: Homo sapiens, MKN-45, 24 h, read-out: Reporter gene assay MKN-45 IC50 [μM], MKN-45/Ubc-luc cells (YAP deleted, specificity control), 24 hours incubation.

Like-named read-outs stand apart in the source and are kept apart here.

Chain of Avi-humanTEAD4 217-434 / Cy5 labeled humanYAP 60-100 (Q15561 217-434): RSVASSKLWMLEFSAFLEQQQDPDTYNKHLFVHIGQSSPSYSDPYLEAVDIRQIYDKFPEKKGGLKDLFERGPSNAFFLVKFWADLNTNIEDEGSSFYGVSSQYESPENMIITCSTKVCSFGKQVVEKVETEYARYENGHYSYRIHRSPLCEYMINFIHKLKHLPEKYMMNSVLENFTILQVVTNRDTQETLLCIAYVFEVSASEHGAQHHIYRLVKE

One may read the GI50 as the concentration at which growth is held to half of that of the control. The low end stands for greater sensitivity of the cells, the high end for lower sensitivity of the cells. As to `COc1ccc(C(N)=O)c(-c2c(Cl)c(F)cc3c2[C@H](OC)[C@](c2ccccc2)(C2CCCN2)O3)c1F` (stereo partly drawn) [Example 165, 2-((2S,3S,4S)-5-chloro-6-fluoro-3-methoxy-2-phenyl-2-(pyrrolidin-2-yl)-2,3-dihydrobenzofuran-4-yl)-3-fluoro-4-methoxybenzamide], the IC50 in assay [1] was 5 nM; in assay [2] (Homo sapiens, NCI-H2052, 24 h), 82 nM; in assay [3] (setting [6]) it was greater than 10 µM. The concentration for 50% growth inhibition (GI50) in assay [4] (Homo sapiens, NCI-H2052, 72 h) was 131 nM; in assay [5] (Homo sapiens), greater than 10000 nM.
Regarding `CO[C@H]1c2c(cc(F)c(Cl)c2-c2c(C(N)=O)ccc(OCCO)c2F)O[C@]1(CN)c1ccccc1` (atropisomer, axis not shown) [Example 101, 2-((2S,3S,4S)-2-(Aminomethyl)-5-chloro-6-fluoro-3-methoxy-2-phenyl-2,3-dihydrobenzofuran-4-yl)-3-fluoro-4-(2-hydroxyethoxy)benzamide], the IC50 is 67 nM in assay [2] (Homo sapiens, NCI-H2052, 24 h) and greater than 10 µM in assay [3] (setting [6]). For the same molecule, the 50% growth inhibitory concentration (GI50) in assay [4] (Homo sapiens, NCI-H2052, 72 h) is 106 nM; in assay [5] (Homo sapiens) it was greater than 10000 nM.
Consider `NC[C@@]1(c2ccccc2)Cc2c(cc(F)c(Cl)c2-c2c(F)cccc2C(N)=O)N1` (atropisomer, axis not shown) [Example 134, 2-((2S,4S)-2-(aminomethyl)-5-chloro-6-fluoro-2-phenylindolin-4-yl)-3-fluorobenzamide], for which the IC50 in assay [1] is 74 nM; in assay [2] (Homo sapiens, NCI-H2052, 24 h), 2310 nM; in assay [3] (setting [6]) it was greater than 10 µM. Besides, the GI50 was 1570 nM in assay [4] (Homo sapiens, NCI-H2052, 72 h) and greater than 10000 nM in assay [5] (Homo sapiens).
With `COc1ccc(C(N)=O)c(-c2c(Cl)ccc3c2C[C@@](CN[C@H]2CC[C@H](C(=O)O)CC2)(c2ccccc2)O3)c1F` (relative stereo) [Example 28a, (Trans)-4-((((2S,4S)-4-(6-carbamoyl-2-fluoro-3-methoxyphenyl)-5-chloro-2-phenyl-2,3-dihydrobenzofuran-2-yl)methyl)amino)cyclohexanecarboxylic acid], the IC50 in assay [1] is 3 nM; in assay [2], 86 nM; in assay [3] (read-out: Reporter gene assay MKN-45 IC50, MKN-45/Ubc-luc cells (YAP deleted, specificity control), 24 hours incubation) it was greater than 10 µM. The GI50 in assay [4] was 224 nM; in assay [5], greater than 10000 nM.
Take `COc1ccc(C(N)=O)c(-c2c(Cl)c(F)cc3c2[C@H](O)[C@](c2ccccc2)(C2CCCN2)O3)c1F` (stereo partly drawn) [Example 164, 2-((2S,3S,4S)-5-chloro-6-fluoro-3-hydroxy-2-phenyl-2-(pyrrolidin-2-yl)-2,3-dihydrobenzofuran-4-yl)-3-fluoro-4-methoxybenzamide]: the IC50 was 4 nM in assay [1]; 107 nM in assay [2] (Homo sapiens, NCI-H2052, 24 h); greater than 10 µM in assay [3] (setting [6]). Moreover, the GI50 in assay [4] (Homo sapiens, NCI-H2052, 72 h) is 107 nM; in assay [5] (Homo sapiens), greater than 10000 nM.
Turning to `NC(=O)c1ccc(OCCO)c(F)c1-c1c(Cl)c(F)cc2c1C[C@@](CN[C@H]1C[C@@H](CO)C1)(c1ccccc1)O2` (atropisomer, axis not shown) [Example 64b, 2-((2S,4S)-5-chloro-6-fluoro-2-((((cis)-3-(hydroxymethyl)cyclobutyl)amino)methyl)-2-phenyl-2,3-dihydrobenzofuran-4-yl)-3-fluoro-4-(2-hydroxyethoxy)benzamide], the IC50 in assay [1] was 3 nM; in assay [2] (Homo sapiens, NCI-H2052, 24 h), 22 nM; in assay [3] (setting [6]), greater than 10 µM. The GI50 in assay [4] (Homo sapiens, NCI-H2052, 72 h) is 41 nM; in assay [5] (Homo sapiens), greater than 10000 nM.
Turning to `CNC(=O)c1ccc(OCCO)c(F)c1-c1c(Cl)c(F)cc2c1C[C@@](CN)(c1ccccc1)O2` (atropisomer, axis not shown) [Example 44, 2-((2S,4S)-2-(Aminomethyl)-5-chloro-6-fluoro-2-phenyl-2,3-dihydrobenzofuran-4-yl)-3-fluoro-4-(2-hydroxyethoxy)-N-methylbenzamide], the IC50 in assay [2] (Homo sapiens, NCI-H2052, 24 h) was 69 nM; in assay [3] (setting [6]), greater than 10 µM. The 50% growth inhibitory concentration (GI50) in assay [4] (Homo sapiens, NCI-H2052, 72 h) was 109 nM; in assay [5] (Homo sapiens), greater than 10000 nM.
Consider `C[C@H]1c2c(cc(F)c(Cl)c2-c2c(C(N)=O)ccc(OCC(C)(C)O)c2F)O[C@]1(CN[C@H]1CC[C@](C)(O)CC1)c1ccccc1` (atropisomer, axis not shown) [Example 148, 2-((2S,3S,4S)-5-Chloro-6-fluoro-2-((((trans)-4-hydroxy-4-methylcyclohexyl)amino)methyl)-3-methyl-2-phenyl-2,3-dihydrobenzofuran-4-yl)-3-fluoro-4-(2-hydroxy-2-methylpropoxy)benzamide], for which the IC50 is 4 nM in assay [1]; 54 nM in assay [2] (Homo sapiens, NCI-H2052, 24 h); greater than 20 µM in assay [3] (setting [6]). Moreover, the concentration for 50% growth inhibition (GI50) in assay [4] (Homo sapiens, NCI-H2052, 72 h) is 53 nM; in assay [5] (Homo sapiens), greater than 20000 nM.
Consider `C[C@H](O)COc1ccc(C(N)=O)c(-c2c(Cl)c(F)cc3c2C[C@](c2ccccc2)(C2CC(C)(O)CN2)O3)c1F` (stereo partly drawn) [Example 159, 2-((2S,4S)-5-Chloro-6-fluoro-2-(4-hydroxy-4-methylpyrrolidin-2-yl)-2-phenyl-2,3-dihydrobenzofuran-4-yl)-3-fluoro-4-((S)-2-hydroxypropoxy)benzamide], for which the IC50 in assay [1] was 122 nM; in assay [2] (Homo sapiens, NCI-H2052, 24 h) it was 1060 nM; in assay [3] (setting [6]), greater than 15 µM. In addition, the concentration for 50% growth inhibition (GI50) is 856 nM in assay [4] (Homo sapiens, NCI-H2052, 72 h) and greater than 15000 nM in assay [5] (Homo sapiens).
In the case of `C[C@@H](F)COc1ccc(C(N)=O)c(-c2c(Cl)ccc3c2C[C@@](CN)(c2ccccc2)O3)c1F` (atropisomer, axis not shown) [Example 15, 2-((2S,4S)-2-(aminomethyl)-5-chloro-2-phenyl-2,3-dihydrobenzofuran-4-yl)-3-fluoro-4-((R)-2-fluoropropoxy)benzamide], the IC50 in assay [1] is 10 nM; in assay [2] (Homo sapiens, NCI-H2052, 24 h), 270 nM; in assay [3] (setting [6]), greater than 10 µM. Moreover, the concentration for 50% growth inhibition (GI50) was 276 nM in assay [4] (Homo sapiens, NCI-H2052, 72 h) and greater than 10000 nM in assay [5] (Homo sapiens).
Take `C[C@]1(O)CC[C@H](NC[C@@]2(c3ccccc3)Cc3c(cc(F)c(Cl)c3-c3c(C(N)=O)ccc(OCc4ncccn4)c3F)O2)CC1` (atropisomer, axis not shown) [Example 71a, 2-((2S,4S)-5-chloro-6-fluoro-2-((((trans)-4-hydroxy-4-methylcyclohexyl)amino)methyl)-2-phenyl-2,3-dihydrobenzofuran-4-yl)-3-fluoro-4-(pyrimidin-2-ylmethoxy)benzamide]: the IC50 in assay [1] was 2 nM.
The same measure, in the same setting: to `C[C@]1(O)CC[C@H](NC[C@@]2(c3ccccc3)Cc3c(cc(F)c(Cl)c3-c3c(C(N)=O)ccc(OC[C@H]4CCCO4)c3F)O2)CC1` (atropisomer, axis not shown) [Example 67b, 2-((2S,4S)-5-chloro-6-fluoro-2-((((trans)-4-hydroxy-4-methylcyclohexyl)amino)methyl)-2-phenyl-2,3-dihydrobenzofuran-4-yl)-3-fluoro-4-(((R)-tetrahydrofuran-2-yl)methoxy)benzamide] belongs 3 nM; to `CC1(NC[C@@]2(c3ccccc3)Cc3c(cc(F)c(Cl)c3-c3c(C(N)=O)ccc(OC(F)F)c3F)O2)CC1` (atropisomer, axis not shown) [Example 76, 2-((2S,4S)-5-chloro-6-fluoro-2-(((1-methylcyclopropyl)amino)methyl)-2-phenyl-2,3-dihydrobenzofuran-4-yl)-4-(difluoromethoxy)-3-fluorobenzamide], 50 nM.
Still for that read-out and setting: to `NCCOc1cccc(F)c1-c1c(Cl)ccc2c1C[C@](CN)(c1ccccc1)O2` [Example 3b, 2-(2-((2R,4R)-2-(aminomethyl)-5-chloro-2-phenyl-2,3-dihydrobenzofuran-4-yl)-3-fluorophenoxy)ethanamine] belongs 18000 nM.

(Values after patent publication US12083101B2, “Biaryl derivatives as YAP/TAZ-TEAD protein-protein interaction inhibitors” (Novartis AG, priority 2020, dated 2024).)
